This passage reports EC50 results from US10945771B2, “Azabicyclo[4.1.0]heptane allosteric modulators of the M4 muscarinic acetylcholine receptor” (Merck Sharp & Dohme Corp., priority 2017, dated 2021).

The target of the test is T1, human M4 muscarinic acetylcholine receptor (Homo sapiens, UniProt P08173).
T1 construct: expressed in transfected cells; host or cells: CHO-K1
T1 sequence (P08173 1-479): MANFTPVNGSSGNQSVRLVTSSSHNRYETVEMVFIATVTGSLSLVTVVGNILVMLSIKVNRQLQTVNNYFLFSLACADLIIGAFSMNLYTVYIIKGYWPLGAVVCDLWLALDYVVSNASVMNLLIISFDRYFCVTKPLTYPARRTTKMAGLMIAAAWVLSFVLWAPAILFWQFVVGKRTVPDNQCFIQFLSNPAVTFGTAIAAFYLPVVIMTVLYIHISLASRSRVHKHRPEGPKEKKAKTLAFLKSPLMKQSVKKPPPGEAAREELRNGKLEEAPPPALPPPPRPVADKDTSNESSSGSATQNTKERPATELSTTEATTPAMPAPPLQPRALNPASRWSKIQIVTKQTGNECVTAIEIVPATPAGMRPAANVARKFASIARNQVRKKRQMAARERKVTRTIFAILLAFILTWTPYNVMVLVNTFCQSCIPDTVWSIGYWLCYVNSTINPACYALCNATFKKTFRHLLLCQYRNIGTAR
The test can be described thus: human FLIPR-based M4 PAM assay (Ca2+ dye fluorescence, CHO-K1 cells with human M4 receptor and Gαqi5). Format: cell-based. The note with it: inflection point (IP) of dose response curve, FLIPR Tetra, acetylcholine at 20% of maximum response. As for the experimental part:
In a typical experiment the M4 muscarinic acetylcholine receptor modulating activity of the compounds of the present invention was determined in accordance with the following experimental method. CHO-K1 cells stably transfected with human M4 receptor and chimeric G-protein Gαqi5 (Coward P, et al., Analytical Biochemistry, 270:242-248 (1999)) are thawed from liquid N2 storage, resuspended in growth medium, plated in black, clear bottom 384 well plates, and incubated 16-20 hours at 37° C., 5% CO2. On the day of assay, growth medium is removed, the cells are washed 2 times with wash buffer, and cells are incubated in dye loading buffer at 37° C., 5% CO2 for ˜1 hour. Following dye loading the cell plates are placed in a FLIPR Tetra instrument and while monitoring dye fluorescence (excitation […]), 10 uL of test substance at increasing concentrations is added, and fluorescence values are recorded for 4 min. Next, 10 uL of acetylcholine is added (final concentration calculated so as to achieve 20% of the maximum acetycholine response), and the fluorescence reading is continued for 3.5 min. In some cases, a third addition of acetylcholine (final concentration calculated to achieve 70% of the maximal acetylcholine response) is performed. The resulting dose response curves are fit to a 4 parameter logistic equation and the final result is determined as the inflection point (IP) of the curve
CHO-K1 cells stably transfected with human M4 receptor and chimeric G-protein Gαqi5 are thawed from liquid N2 storage, resuspended in growth medium, plated in black, clear bottom 384 well plates, and incubated 16-20 hours at 37° C., 5% CO2.
On the day of assay, growth medium is removed, the cells are washed 2 times with wash buffer, and cells are incubated in dye loading buffer at 37° C., 5% CO2 for ˜1 h. Following dye loading the cell plates are placed in a FLIPR Tetra instrument and while monitoring dye fluorescence ([…]), 10 uL of test substance at increasing concentrations is added, and fluorescence values are recorded for 4 min. Next, 10 uL of acetylcholine is added (final concentration calculated so as to achieve 20% of the maximum acetycholine response), and the fluorescence reading is continued for 3.5 min. In some cases, a third addition of acetylcholine (final concentration calculated to achieve 70% of the maximal acetylcholine response) is performed.

In general, EC50 refers to the concentration needed to bring the measured effect to its halfway point. A low value points to an effect from little substance.

For the compound `Cc1c(N2CCC(OCC3(C)CC3)C3CC32)nc2c(c1C)C(=O)N1CCC(O)CC21` (single isomer, unassigned) [Example 24, 9-hydroxy-3,4-dimethyl-2-(5-((1-methylcyclopropyl)methoxy)-2-azabicyclo[4.1.0]heptan-2-yl)-8,9,10,10a-tetrahydropyrido[2,3-a]indolizin-5(7H)-one], the EC50 stood at 2440 nM. Under `Cc1c(N2CCC(OCC3(C)CC3)C3CC32)nc2c(c1C)C(=O)N1CCC(C)(O)CC21` (centres unmarked) [Example 25, 9-hydroxy-3,4,9-trimethyl-2-(5-((1-methylcyclopropyl)methoxy)-2-azabicyclo[4.1.0]heptan-2-yl)-8,9,10,10a-tetrahydropyrido[2,3-a]indolizin-5(7H)-one] stands 195 nM; under `Cc1c(N2CCC(OCC3(C)CC3)C3CC32)nc2c(c1C)C(=O)N1CCOCC21` (centres unmarked) [Example 26, 3,4-dimethyl-2-(5-((1-methylcyclopropyl)methoxy)-2-azabicyclo[4.1.0]heptan-2-yl)-7,8,10,10a-tetrahydro-5H-pyrido[2′,3′:3,4]pyrrolo[2,1-c][1,4]oxazin-5-one], 153 nM.

In the case of `Cc1c(N2CCC(Oc3ccc4c(c3)COC4)C3CC32)nc2c(c1C)C(=O)NC2` (centres unmarked) [Example 27, 2-(5-((1,3-dihydroisobenzofuran-5-yl)oxy)-2-azabicyclo[4.1.0]heptan-2-yl)-3,4-dimethyl-6,7-dihydro-5H-pyrrolo[3,4-b]pyridin-5-one], a half-maximal effect (EC50) was put at 166 nM. Under `Cc1cc2c(nc1N1CCC(Oc3ccc4c(c3)COC4)C3CC31)CNC2=O` (centres unmarked) [Example 28, 2-(5-((1,3-dihydroisobenzofuran-5-yl)oxy)-2-azabicyclo[4.1.0]heptan-2-yl)-3-methyl-6,7-dihydro-5H-pyrrolo[3,4-b]pyridin-5-one] stands 76 nM; under `Cc1cc2c(nc1N1CCC(Oc3ccc4c(c3)COC4)C3CC31)CNC2=O` (centres unmarked) [Example 29, 2-(5-((1,3-dihydroisobenzofuran-5-yl)oxy)-2-azabicyclo[4.1.0]heptan-2-yl)-3-methyl-6,7-dihydro-5H-pyrrolo[3,4-b]pyridin-5-one], 43 nM.

In turn, `Cc1cc2c(nc1N1CCC(Oc3ccc4c(c3)COC4)C3CC31)CNC2=O` (centres unmarked) [Example 30, 2-(5-((1,3-dihydroisobenzofuran-5-yl)oxy)-2-azabicyclo[4.1.0]heptan-2-yl)-3-methyl-6,7-dihydro-5H-pyrrolo[3,4-b]pyridin-5-one] showed an EC50 of 727 nM. Under `Cc1cc2c(nc1N1CCC(Oc3ccc4c(c3)CCOC4)C3CC31)CNC2=O` (centres unmarked) [Example 31, 2-(5-(isochroman-6-yloxy)-2-azabicyclo[4.1.0]heptan-2-yl)-3-methyl-6,7-dihydro-5H-pyrrolo[3,4-b]pyridin-5-one] stands 72 nM. Under `Cc1c(N2CCC(Oc3ccc4c(c3)COCC4)C3CC32)nc2c(c1C)C(=O)NC2` (centres unmarked) [Example 35, 2-(5-(isochroman-7-yloxy)-2-azabicyclo[4.1.0]heptan-2-yl)-3,4-dimethyl-6,7-dihydro-5H-pyrrolo[3,4-b]pyridin-5-one] stands 281 nM; under `Cc1cc2c(nc1N1CCC(Oc3ccc4c(c3)COCC4)C3CC31)CNC2=O` (centres unmarked) [Example 36, 2-(5-(isochroman-7-yloxy)-2-azabicyclo[4.1.0]heptan-2-yl)-3-methyl-6,7-dihydro-5H-pyrrolo[3,4-b]pyridin-5-one], 156 nM. `Cc1c(N2CCC(Oc3ccc4c(c3)COC4)C3CC32)nc2c(c1C)C(=O)N(C)C2` (centres unmarked) [Example 37, 2-(5-((1,3-dihydroisobenzofuran-5-yl)oxy)-2-azabicyclo[4.1.0]heptan-2-yl)-3,4,6-trimethyl-6,7-dihydro-5H-pyrrolo[3,4-b]pyridin-5-one] displayed an EC50 of 143 nM. This EC50 and that of the compound before are within 1.5-fold of each other.
